Consider six compounds from US20090061006A1, “Layered Nanoparticles for Sustained Release of Small Molecules” (priority 2006, published 2009).

Where two headings read alike, the source gives them in different places. Where a SMILES comes first, the peptide text is derived from it. [ ]: non-standard residue; d: D form. dPhe(4-Cl) = N[C@H](Cc1ccc(Cl)cc1)C(=O)O; d2Nal = N[C@H](Cc1ccc2ccccc2c1)C(=O)O; dCit = NC(=O)NCCC[C@@H](N)C(=O)O; d3Pal = N[C@H](Cc1cccnc1)C(=O)O

The test system of data set [1] is human endometrial cancer cell lines. As to conditions: cited from earlier work.
For data set [2], the system named is human ovarian cancer cell lines. The following applies: cited from earlier work.
The conditions of data set [3]: cited from earlier work.
The next data set has as its system breast cancer xenograft. As to conditions: intravenously injected, cited from earlier work.
The conditions of data set [4]: in vivo.
Data set [5] relates to MDA-MB-435S human breast cancer cells. The experiment in a line: Cytotoxicity study, thiazolyl Blue (MTT) cell viability. The following applies: 9 hours incubation. Type of data set: cell-based. The method, then:
MDA-MB-435S cells were seeded into 12 well plates and grown in culture media containing Leibovitz's L-15 medium, 10% fetal bovine serum, 0.01 mg/mL bovine insulin, 100 IU/mL penicillin, and 100 μg/mL streptomycin. The cells were kept in tightly closed flasks at 37° C. in an incubator and grown to 70% confluence. Treatments with free Phor21-βCG(ala) were conducted at concentrations of 5, 20, and 100 μM. Treatments with silica-peptide nanoshells were conducted at corresponding amounts, equivalent to total Phor21-βCG(ala) concentrations of 5, 20, and 100 μM. On a separate plate silica nanoshells without peptide (15 mg/mL culture medium) were added to MDA-MB-435S cell cultures to determine their effect on cell viability. In all incubations, added saline was used as a control. Total incubation time was 9 hours at 37° C. Cell viability was measured in a thiazolyl Blue assay using [3-(4,5)-Dimethylthiazol-2-yl]-2,5 Diphenyltetrazolium Bromide—MTT. Cleavage of the tetrazolium ring by active mitochondria was used as a measure of the number of living cells. Statistical significance was determined using analysis of variance (ANOVA) and a two-tailed Student's t-test. Differences were considered significant at p<0.05.

In the next data set the test system is cancer cells. Nature of the data set: Potency in destroying cancer cells. It is filed as cell-based.
The conditions of data set [6]: cited from earlier work. The source holds these as a separate data set.

On to `CC(=O)N[C@H](Cc1ccc2ccccc2c1)C(=O)N[C@H](Cc1ccc(Cl)cc1)C(=O)N[C@H](Cc1cccnc1)C(=O)N[C@@H](CO)C(=O)N[C@@H](Cc1ccc(O)cc1)C(=O)N[C@H](CCCNC(N)=O)C(=O)N[C@@H](CC(C)C)C(=O)N[C@@H](CCCNC(=N)N)C(=O)N1CCC[C@H]1C(=O)N[C@H](C)C(N)=O` [Cetrorelix] (Ac-[d2Nal][dPhe(4-Cl)][d3Pal]SY[dCit]LRP[dA]-NH2), for which the in vitro proliferation result in data set [1] and in data set [2] was “inhibited” throughout.
Take `C[C@@H]1C[C@H]2[C@@H]3CCC4=CC(=O)C=C[C@]4(C)[C@@]3(F)[C@@H](O)C[C@]2(C)[C@@]1(O)C(=O)CO` [Dexamethasone]: the solubility in water result in data set [3] is recorded as “insoluble”.
Consider `CC(C)C[C@H](NC(=O)[C@@H](Cc1c[nH]c2ccccc12)NC(=O)[C@H](Cc1ccc(O)cc1)NC(=O)[C@H](CO)NC(=O)[C@H](Cc1c[nH]c2ccccc12)NC(=O)[C@H](Cc1c[nH]cn1)NC(=O)[C@@H]1CCC(=O)N1)C(=O)N[C@@H](CCCNC(=N)N)C(=O)N1CCC[C@H]1C(=O)NCC(N)=O` [triptorelin], for which the in vitro proliferation result in data set [1] and in data set [2] was “inhibited” throughout.
Regarding “Phor21-βCG(ala): 35-residue conjugate peptide KFAKFAKKFAKFAKKFAKFAK-SYAVASAQAALAAR (SEQ ID NO. 1): lytic peptide Phor21 plus gonadotropin analog ligand βCG(ala) (KFAKFAKKFAKFAKKFAKFAKSYAVASAQAALAAR; Phor21-beta-CG(ala) Peptide)”, the “cell death in treated tumors” value in the data set on breast cancer xenograft (8 mg/kg body weight, p<0.01) is “lower”; in the data set with breast cancer xenograft (0.2 and 2 mg/kg body weight, p<0.05), “significantly higher”. Further, the “time after which free peptide is almost completely destroyed in circulation” value in data set [4] is “about three”. Further, in data set [5], the “activity at 100 micromolar versus 20 micromolar” value was “significantly lower activity”. In addition, the “toxicity against breast cancer cells” value in data set [5] (free peptide, 5, 20 and 100 μM, N=6) is given as “destroyed”.
Take “Phor21: membrane-disrupting lytic peptide, residues 1-21 of SEQ ID NO. 1 (KFAKFAKKFAKFAKKFAKFAK; Phor21-beta-CG(ala) Peptide)”: the “potency in destroying cancer cells versus Hecate or Phor14” value in the data set on cancer cells was “more potent”.
For the compound “luteinizing hormone releasing hormone [LHRH]”, the half-life in vivo in data set [6] is ~20 min.
